The structures appear in SMILES notation. “And” between values parts separate entries of the source, which are not always exact repeats. Identical values can stand only once.

Test [1] deals with influenza infection. Further details: species or system human. The note with it: in vivo, po.
Test [2] concerns NA of influenza A and B virus isolates. It counts as biochemical, influenza A and B viruses.

Consider `CCOC(=O)C1=C[C@@H](OC(CC)CC)[C@H](NC(C)=O)[C@@H](N)C1` [oseltamivir], for which, in test [1], the “duration of symptoms after commencing antiviral treatment (mean)” value is 33.0 ± 8.3 days and 26 ± 17.9 days.
On to `CC(=O)N[C@H]1[C@H]([C@H](O)[C@H](O)CO)OC(C(=O)O)=C[C@@H]1N=C(N)N` [zanamivir], for which the Susceptibility to zanamivir result in test [2] is “susceptible”.

For the origin of these results see publication PMC3070406 (The Pediatric infectious disease journal, 2011).
